{
  "source": "patent US11919895B2",
  "about": "“GPR183 antagonists for the treatment of pain” (Saint Louis University, priority 2019, dated 2024)",
  "key": {"[1]": {"tested_on": "CCI-induced neuropathic pain", "experiment": "Example 1: intrathecal injection in CCI-induced neuropathic pain", "format": "in vivo, rodents", "conditions": "for effect on behaviors on the contralateral side: intrathecal injection (5 μl), CCI; for reversal of CCI-induced neuropathic pain behaviors (allodynia) ipsilateral to injury: intrathecal injection at time of peak neuropathic pain (day 7)"}, "[2]": {"tested_on": "CCI-induced mechano-allodynia", "experiment": "Example 2: CCI-induced mechano-allodynia, intrathecal injection (von Frey)", "format": "in vivo, mice", "method": "(§1) α,25-dihydroxycholesterol (7α,25-OHC) was purchased from Avanti Polar Lipids (Alabaster, AL) and dissolved in DMSO as a 2 mM stock. For injections 7α,25-OHC was diluted in saline. […] For intrathecal injections, NIBR189 was diluted in saline. Fluoronated 7α,25-OHC analog (SLUPP-1492) was synthesized as described previously (Deng et al., 2016) (detailed methods below and continued in Supplemental methods) and prepared as a 10 mM stock in DMSO. For injections SLUPP-1492 was diluted in saline. SAE compounds were purchased from Enamine (Monmouth Jet., NJ), all compounds were purified via normal phase chromatography and had purities of ≥95%. 100 mM Stock solutions of the SAE compounds were prepared in DMSO. For intrathecal injections, SAE compounds were diluted in saline. Acute intrathecal (i.th.) injections of compounds were performed as described previously (Lu and Schmidtko, 2013), all compounds were administered intrathecally in a total volume of 5-10 μL.\nCCI of the left sciatic nerve of mice and rats was performed under general anesthesia as previously described (Yosten et al., 2020). Briefly, animals were anesthetized with 2% isoflurane/O2, the left thigh was shaved and disinfected with Dermachlor solution. A small incision (1-1.5 cm) was made in the middle of the lateral aspect of the left thigh to expose the sciatic nerve. The nerve was loosely ligated around the diameter at 3 distinct sites (1 mm apart) using silk sutures (6.0, mice; 4.0, rats). The surgical site was closed with a skin clip and disinfected and treated with topical lidocaine (2%). Sham animals underwent the same procedure without nerve ligation. Peak allodynia developed by D7-D10 following CCI surgery.\n(§2) Mechano-allodynia was measured as previously described (Yosten et al., 2020) using calibrated von Frey filaments (Stoelting; range in mice: 0.07-2.00 g; in rats: 2-26 g) using the Dixon up-and-down method (Dixon, 1991). Mechano-allodynia was defined as a significant (p<0.05) reduction in mechanical paw withdrawal threshold [PWT (g)] compared to baseline forces (before treatment)."}, "[3]": {"conditions": "Ardecky et al., 2010; cited from earlier work"}, "[4]": {"conditions": "Ardecky et al., 2010; cited from earlier work", "remark": "listed apart in the source"}, "[5]": {"molecular_target": "T1, GPR183 (Homo sapiens, UniProt P32249)", "conditions": "Benned-Jensen et al., 2013; read-out: IC50, GPR183 antagonist; cited from earlier work"}, "[6]": {"molecular_target": "T1, GPR183", "experiment": "Calcium mobilization antagonism assay (7α,25-OHC-induced) in HL-60 cells", "format": "cell-based", "set-up": "host or cells: HL-60 (human leukemia) cells", "conditions": "7α,25-OHC at EC80", "procedure": "Serial dilutions (5×) of compounds were prepared in 50:1 HBSS/HEPES.HL-60 cells (1×10^7) were incubated in 50:1 HBSS/HEPES containing 5 μM indo-1-AM (Thermo Fischer Scientific; Waltham. MA) and 0.05% pluronic acid for 0.5 hours at room temperature. Cells were centrifuged and washed with 50:1 HBSS/HEPES and resuspended in buffer. Cells were loaded onto a black 96-well Greiner Bio-One (Thermo Fischer Scientific; Waltham, MA) clear-bottom plate at 100,000 cells/well for a 5× dilution. […] For antagonism assays, before the addition of agonist, 5× of the antagonist was added and incubated for 15 minutes at 37° C. inside a FlexStation3. After allowing 15 minutes of equilibration, the determined EC80 of 7α,25-OHC (200 nM) was added, and fluorescence was read for 150 secs at 37° C. Calcium mobilization was determined ratiometrically using λex 350 nm and λem 405/490 nm. Dose-response data were normalized to a 0.5% DMSO vehicle control and the maximum response. […]"}, "[7]": {"tested_on": "GPR183", "experiment": "Example 1: mechano-allodynia induced by i.th. GPR183 agonist", "format": "in vivo, rodents"}, "[8]": {"tested_on": "GPR183 signaling in the spinal cord", "experiment": "Example 2: mechano-allodynia induced by intrathecal GPR183 agonist", "format": "in vivo, mice", "method": "as §1, §2"}, "[9]": {"tested_on": "GPR183 signaling in the spinal cord", "experiment": "Example 2: cold allodynia induced by intrathecal GPR183 agonist (acetone test)", "format": "in vivo, mice", "method": "as §1, with “Acute intrathecal (i.th.) injections of compounds were performed as described previously (Lu and Schmidtko, 2013), all compounds were administered intrathecally in a total volume of 5-10 μL.” left out\nCold allodynia was measured as previously described using the acetone test (Xing et al., 2007; Yosten et al., 2020). Briefly, a small drop of acetone was applied to the hind paw of the animal using a flattened polyethylene tube and a syringe and the response to the cold stimulus was scored (0, no response; 1, brisk withdrawal or flick of the paw; 2. repeated flicking of the paw; 3. repeated flicking and licking of the paw). […] When mechanical and cold allodynia were measured on the same animal, mechano-allodynia was measured first with at least 15 minutes before testing cold allodynia."}, "[10]": {"molecular_target": "T1, GPR183", "experiment": "Calcium mobilization agonism assay in HL-60 cells", "format": "cell-based", "set-up": "host or cells: HL-60 (human leukemia) cells", "conditions": "for EC80: calcium mobilization", "method": "The Human leukemia (HL)-60 cells (American Type Culture Collection; Manassas, VA) were cultivated in RPMI 1640 media containing 10% heat-inactivated fetal bovine serum (FBS), 1% penicillin, and 1% GlutaMax. Cells were passaged every 3 days and maintained at a cell concentration below 1×10^6 to prevent differentiation.\n(§3) Serial dilutions (5×) of compounds were prepared in 50:1 HBSS/HEPES.HL-60 cells (1×10^7) were incubated in 50:1 HBSS/HEPES containing 5 μM indo-1-AM (Thermo Fischer Scientific; Waltham. MA) and 0.05% pluronic acid for 0.5 hours at room temperature. Cells were centrifuged and washed with 50:1 HBSS/HEPES and resuspended in buffer. Cells were loaded onto a black 96-well Greiner Bio-One (Thermo Fischer Scientific; Waltham, MA) clear-bottom plate at 100,000 cells/well for a 5× dilution. For agonism assays, cells were immediately incubated for 15 minutes at 37° C. inside a FlexStation 3 Multimode Plate Reader (Molecular Devices; Sunnyvale, CA). Following the 15 minute incubation period, 5× of the compound was added and fluorescence was read for 150 seconds at 37° C. This method was utilized to determine the EC80 value of 7α,25·OHC (EC80=200 nM). For antagonism assays, before the addition of agonist, 5× of the antagonist was added and incubated for 15 minutes at 37° C. inside a FlexStation3. After allowing 15 minutes of equilibration, the determined EC80 of 7α,25-OHC (200 nM) was added, and fluorescence was read for 150 secs at 37° C. Calcium mobilization was determined ratiometrically using λex 350 nm and λem 405/490 nm. Dose-response data were normalized to a 0.5% DMSO vehicle control and the maximum response. From the normalized data, non-linear regression curves were then generated to calculate the appropriate EC50 and IC50 values. Each compound was run in triplicate (n=3)."}, "[11]": {"molecular_target": "T1, GPR183", "experiment": "Calcium mobilization in HL-60 cells after siRNA knock-down of GPR183", "format": "cell-based", "set-up": "host or cells: HL-60 (human leukemia) cells", "conditions": "HL-60 cells treated with siRNA, FIG. 12E", "method": "as §3, with “Dose-response data were normalized to a 0.5% DMSO vehicle control and the maximum response. From the normalized data, non-linear regression curves were then generated to calculate the appropriate EC50 and IC50 values. Each compound was run in triplicate (n=3).” left out\nsiRNA was purchased from Santa Cruz Biotechnology (Dallas, TX). HL-60 cells were centrifuged and counted with a hemocytometer to obtain 2.5×10^6 cells. […]"}, "[12]": {"conditions": "acute i.th. on D7 post-surgery, male and female mice, SAE-1 800 nM, SAE-10 1.4 μM, SAE-14 2.9 μM"}},
  "note": "“Also recorded” adds a separate entry of the source. Read-outs that look alike come from different tables or passages of the source.",
  "data": [
    {"molecule": "COc1ccc(C(=O)N2CCN(C(=O)/C=C/c3ccc(Br)cc3)CC2)cc1", "note": "[NIBR189]", "values": [
      {"measurement": "effect on behaviors on the contralateral side", "setting": "[1]", "result": "No effects on behaviors on the contralateral side"},
      {"measurement": "reversal of CCI-induced neuropathic pain behaviors (allodynia) ipsilateral to injury", "setting": "[1]", "result": "reversal of CCI-induced neuropathic pain behaviors ipsilateral to injury in a time- and dose-dependent manner"},
      {"measurement": "reversal of CCI-induced mechano-allodynia", "setting": "[2]; acute i.th. 0.7, 2.3, 23 μM on D7 post CCI, male mice", "result": "failed to reverse mechano-allodynia; also recorded: did not reverse"}
    ]},
    {"molecule": "O=C(/C=C/c1ccc(Cl)cc1)N1CCC2(CC1)CN(Cc1ccc(Cl)c(Cl)c1)C(=O)O2", "note": "[GSK682753A]", "values": [
      {"measurement": "plasma stability", "setting": "[3]", "result": "poor"},
      {"measurement": "microsomal stability", "setting": "[4]", "result": "poor"},
      {"measurement": "IC50", "setting": "[5]", "result": 200, "unit": "nM"}
    ]},
    {"molecule": "COc1cc2c(cc1OC)CN(C(=O)NOCc1ccccc1)CC2", "note": "[SAE-10]", "values": [
      {"measurement": "reversal of CCI-induced mechano-allodynia", "setting": "[2]; [12]", "result": "reversed CCI-induced mechanical allodynia in a time-dependent manner"}
    ]},
    {"molecule": "O=C(CCc1ccc(F)c(F)c1)Nc1cc(F)cc(N2CCOCC2)c1", "note": "[SAE-14]", "values": [
      {"measurement": "IC50", "setting": "[6]", "result": 28.5, "unit": "nM"},
      {"measurement": "reversal of CCI-induced neuropathic pain behaviors (allodynia) ipsilateral to injury", "setting": "[1]", "result": "reversed allodynia in a time-dependent manner"},
      {"measurement": "observable adverse side effects", "setting": "[1]; intrathecal injection, rodents", "result": "no observable adverse side effects"},
      {"measurement": "reversal of CCI-induced mechano-allodynia", "setting": "[2]; [12]", "result": "reversed CCI-induced mechanical allodynia in a time-dependent manner"},
      {"measurement": "blockade of agonist-induced allodynia", "setting": "[7]; i.th. delivery, rodents", "result": "blocked"},
      {"measurement": "prevention of mechano-allodynia induced by 7α,25-OHC", "setting": "[8]; i.th. pre-treatment 0.3, 1, 3 μM, 7α,25-OHC 480 nM, male and female mice", "result": "blocked these effects of 7α,25-OHC in a dose-dependent manner; also recorded: dose-dependently prevented"},
      {"measurement": "prevention of cold-allodynia induced by 7α,25-OHC", "setting": "[9]; i.th. pre-treatment 3 μM, 7α,25-OHC 480 nM, male and female mice", "result": "blocked these effects of 7α,25-OHC in a dose-dependent manner; also recorded: dose-dependently prevented"}
    ]},
    {"molecule": "COc1cc(C(C)NC(=O)Cc2c(C)nc(C)[nH]c2=O)cc(OC)c1OC", "note": "(stereo not drawn) [SAE-1]", "values": [
      {"measurement": "effect on behaviors on the contralateral side", "setting": "[1]", "result": "No effects on behaviors on the contralateral side"},
      {"measurement": "reversal of CCI-induced neuropathic pain behaviors (allodynia) ipsilateral to injury", "setting": "[1]", "result": "reversal of CCI-induced neuropathic pain behaviors ipsilateral to injury in a time- and dose-dependent manner"},
      {"measurement": "reversal of CCI-induced mechano-allodynia", "setting": "[2]; [12]", "result": "reversed CCI-induced mechanical allodynia in a time-dependent manner"}
    ]},
    {"molecule": "C[C@H](CCCC(C)(C)O)[C@H]1CC[C@H]2[C@@H]3[C@H](O)C=C4C[C@@H](O)CC[C@]4(C)[C@H]3CC[C@]12C", "note": "[7α,25-OHC, 7α,25-dihydroxycholesterol]", "values": [
      {"measurement": "EC50", "setting": "[10]", "result": 42.4, "unit": "nM"},
      {"measurement": "calcium response in HL-60 cells that express GPR183", "setting": "[10]; FIG. 1", "result": "very prominent calcium response"},
      {"measurement": "EC80", "setting": "[10]; HL-60 cells", "result": 209, "unit": "nM"},
      {"measurement": "EC80", "setting": "[10]; HL-60 cells, listed as 7α,25·OHC", "result": 200, "unit": "nM"},
      {"measurement": "HillSlope (best-fit value)", "setting": "[10]; log(agonist) vs. normalized response, variable slope, HL-60 cells", "result": 0.8624},
      {"measurement": "7α,25-OHC-induced calcium mobilization with GPR183-specific siRNA", "setting": "[11]", "result": "abolished"},
      {"measurement": "ED50, induction of mechano-allodynia", "setting": "[7]; i.th. injection, n=6/dose, 3 doses", "result": 0.031, "unit": "ng"},
      {"measurement": "induction of mechano-allodynia", "setting": "[8]; acute i.th., 7α,25-OHC 24, 72, 240 nM, SLUPP-1492 615 nM, male and female mice", "result": "induced a dose and time-dependent mechano-allodynia"},
      {"measurement": "ED50, induction of mechano-allodynia", "setting": "[8]; i.th. injection, mice, FIG. 14A", "result": 74, "unit": "nM"},
      {"measurement": "induction of cold-allodynia", "setting": "[9]; i.th., 7α,25-OHC 240 nM, SLUPP-1492 615 nM, mice", "result": "induced time-dependent development of cold-allodynia"}
    ]}
  ]
}
